# Measurements from patent publication US20090202997A1, “Cell-Free In Vitro Transcription and Translation of Membrane Proteins into Tethered Planar Lipid Layers” (priority 2005, published 2009).
# Test system: odorant receptor OR5
# Experiment: IR spectroscopy of OR5/tBLM system upon addition of odorant
# Type: binding, rat
# Description: The activity of incorporated odorant receptors was measured using IR spectroscopy.
structure (smiles),measurement,setting,value
CC(C=O)Cc1ccc(C(C)(C)C)cc1 (centres unmarked) [lilial],signal change of the IR amide I peak (recognition of the odor by the receptor),1 mM lilial added to tBLM integrated OR5,recognition of the odor by the receptor
same,reversibility of the lilial/OR5 interaction,rinsing with PBS,can be reversed by rinsing with PBS
